Data set [1] addresses T1, OATP1B1 (Homo sapiens, UniProt Q9Y6L6).
T1 sequence (Q9Y6L6 1-691): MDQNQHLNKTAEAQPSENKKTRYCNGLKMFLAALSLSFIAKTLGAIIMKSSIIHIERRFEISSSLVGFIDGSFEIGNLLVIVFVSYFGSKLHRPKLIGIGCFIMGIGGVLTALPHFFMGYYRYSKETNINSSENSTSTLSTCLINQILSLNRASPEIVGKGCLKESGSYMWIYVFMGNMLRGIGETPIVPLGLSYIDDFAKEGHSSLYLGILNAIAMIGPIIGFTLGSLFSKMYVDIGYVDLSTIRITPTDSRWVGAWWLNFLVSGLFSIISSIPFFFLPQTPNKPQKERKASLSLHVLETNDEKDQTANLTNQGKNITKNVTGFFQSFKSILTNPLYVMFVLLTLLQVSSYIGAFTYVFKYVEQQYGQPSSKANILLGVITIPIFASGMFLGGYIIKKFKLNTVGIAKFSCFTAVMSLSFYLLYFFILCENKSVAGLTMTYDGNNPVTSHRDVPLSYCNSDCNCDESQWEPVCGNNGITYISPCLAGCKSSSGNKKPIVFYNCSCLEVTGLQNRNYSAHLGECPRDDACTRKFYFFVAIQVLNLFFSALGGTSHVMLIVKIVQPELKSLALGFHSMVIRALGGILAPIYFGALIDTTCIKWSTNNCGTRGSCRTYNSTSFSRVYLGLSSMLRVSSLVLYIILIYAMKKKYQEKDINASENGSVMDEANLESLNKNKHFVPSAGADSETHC
Nature of the data set: fluorimetric uptake of fluorescein-methotrexate. Type of data set: cell-based. Particulars: racemic compound.

The next data set concerns the target BSEP (Homo sapiens, UniProt O95342). Nature of the data set: uptake of 3H-taurocholic acid in membrane vesicles, scintillation counting. Type of data set: biochemical. Particulars: read-out: % of control activity at 10 μM.
For data set [2], the target named is T2, OATP1B3 (Homo sapiens, UniProt Q9NPD5).
T2 sequence (Q9NPD5 1-702): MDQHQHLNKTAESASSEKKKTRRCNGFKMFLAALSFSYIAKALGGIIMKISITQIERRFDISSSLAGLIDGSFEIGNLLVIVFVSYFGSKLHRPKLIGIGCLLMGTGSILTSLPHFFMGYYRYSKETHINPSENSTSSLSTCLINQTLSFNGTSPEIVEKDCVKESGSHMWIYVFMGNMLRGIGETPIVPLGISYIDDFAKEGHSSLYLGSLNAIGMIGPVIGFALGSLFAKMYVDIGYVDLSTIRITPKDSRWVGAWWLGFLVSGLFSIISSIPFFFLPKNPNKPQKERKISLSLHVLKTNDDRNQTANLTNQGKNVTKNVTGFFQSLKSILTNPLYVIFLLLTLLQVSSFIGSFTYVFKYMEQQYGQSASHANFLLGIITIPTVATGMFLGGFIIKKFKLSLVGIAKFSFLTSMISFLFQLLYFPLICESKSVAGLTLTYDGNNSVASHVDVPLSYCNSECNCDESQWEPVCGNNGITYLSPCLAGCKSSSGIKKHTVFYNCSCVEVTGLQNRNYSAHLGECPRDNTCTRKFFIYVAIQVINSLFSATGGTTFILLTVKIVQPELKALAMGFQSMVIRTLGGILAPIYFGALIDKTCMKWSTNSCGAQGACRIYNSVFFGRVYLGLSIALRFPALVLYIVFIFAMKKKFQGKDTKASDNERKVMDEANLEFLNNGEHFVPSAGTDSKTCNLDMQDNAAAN
Nature of the data set: fluorimetric uptake of fluorescein-methotrexate. Type of data set: cell-based. Particulars: racemic compound.

The target in a further data set is MRP2 (Homo sapiens, UniProt Q92887). Nature of the data set: fluorimetric uptake of […]. Type of data set: cell-based.
MRP2, sequence (Q92887 whole entry): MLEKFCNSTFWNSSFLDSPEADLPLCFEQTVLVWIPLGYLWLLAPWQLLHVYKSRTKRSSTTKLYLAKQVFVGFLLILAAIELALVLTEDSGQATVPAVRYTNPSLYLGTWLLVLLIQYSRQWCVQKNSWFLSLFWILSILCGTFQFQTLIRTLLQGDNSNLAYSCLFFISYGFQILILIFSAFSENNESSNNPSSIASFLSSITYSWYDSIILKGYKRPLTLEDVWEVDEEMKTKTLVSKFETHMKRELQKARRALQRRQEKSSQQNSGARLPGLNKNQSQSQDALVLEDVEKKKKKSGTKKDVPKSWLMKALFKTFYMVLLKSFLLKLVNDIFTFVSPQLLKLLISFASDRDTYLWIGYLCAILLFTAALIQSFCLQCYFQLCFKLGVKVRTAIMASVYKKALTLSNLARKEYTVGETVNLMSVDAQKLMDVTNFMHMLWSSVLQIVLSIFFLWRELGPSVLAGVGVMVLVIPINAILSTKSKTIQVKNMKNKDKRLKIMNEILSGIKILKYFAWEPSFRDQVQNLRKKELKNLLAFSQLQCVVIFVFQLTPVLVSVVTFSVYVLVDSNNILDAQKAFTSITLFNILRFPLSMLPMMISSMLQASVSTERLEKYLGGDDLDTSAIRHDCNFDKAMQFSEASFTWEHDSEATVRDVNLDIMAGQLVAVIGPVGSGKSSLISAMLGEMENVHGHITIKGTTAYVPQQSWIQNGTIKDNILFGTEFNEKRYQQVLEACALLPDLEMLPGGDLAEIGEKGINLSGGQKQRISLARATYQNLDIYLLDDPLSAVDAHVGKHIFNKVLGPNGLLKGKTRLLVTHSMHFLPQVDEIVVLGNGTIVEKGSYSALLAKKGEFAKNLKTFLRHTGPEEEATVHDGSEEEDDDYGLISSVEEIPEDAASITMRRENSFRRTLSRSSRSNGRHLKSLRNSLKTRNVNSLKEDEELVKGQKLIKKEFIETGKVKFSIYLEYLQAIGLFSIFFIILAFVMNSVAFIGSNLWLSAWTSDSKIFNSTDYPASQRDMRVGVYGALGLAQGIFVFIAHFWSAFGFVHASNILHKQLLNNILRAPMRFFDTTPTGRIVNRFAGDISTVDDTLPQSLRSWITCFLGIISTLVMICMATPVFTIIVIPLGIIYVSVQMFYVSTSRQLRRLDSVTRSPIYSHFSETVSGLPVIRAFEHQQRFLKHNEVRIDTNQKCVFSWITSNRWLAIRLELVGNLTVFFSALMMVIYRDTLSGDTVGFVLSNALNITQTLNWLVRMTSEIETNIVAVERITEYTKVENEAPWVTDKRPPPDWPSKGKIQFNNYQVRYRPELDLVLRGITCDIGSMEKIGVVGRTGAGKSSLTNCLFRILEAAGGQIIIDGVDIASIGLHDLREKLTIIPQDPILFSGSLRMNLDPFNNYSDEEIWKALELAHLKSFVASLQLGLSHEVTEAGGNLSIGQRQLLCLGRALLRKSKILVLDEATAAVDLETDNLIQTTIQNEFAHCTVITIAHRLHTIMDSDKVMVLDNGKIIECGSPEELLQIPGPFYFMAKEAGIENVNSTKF
The target in the next data set is T3, hPXR (Homo sapiens, UniProt O75469).
T3 sequence (O75469 1-434): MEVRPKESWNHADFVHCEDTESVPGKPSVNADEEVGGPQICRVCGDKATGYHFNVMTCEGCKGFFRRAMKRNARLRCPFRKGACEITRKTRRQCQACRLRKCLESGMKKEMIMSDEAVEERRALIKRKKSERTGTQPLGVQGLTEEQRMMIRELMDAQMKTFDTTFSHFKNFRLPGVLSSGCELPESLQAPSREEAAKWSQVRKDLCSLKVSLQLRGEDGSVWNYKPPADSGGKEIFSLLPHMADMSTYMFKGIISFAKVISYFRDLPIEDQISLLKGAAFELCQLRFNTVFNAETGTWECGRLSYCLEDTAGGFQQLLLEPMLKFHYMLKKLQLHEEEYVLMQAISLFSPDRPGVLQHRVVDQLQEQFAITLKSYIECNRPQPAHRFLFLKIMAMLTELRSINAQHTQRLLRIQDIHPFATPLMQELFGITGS
The experiment in a line: luciferase reporter gene assay. Type of data set: cell-based. A general note: Reporter assays use an easily measured gene product as a stand-in for the process of interest.

For data set [3], the target named is T2, OATP1B3. The experiment in a line: fluorimetric uptake of fluorescein-methotrexate. Type of data set: cell-based.
Data set [4] concerns the target T1, OATP1B1. The experiment in a line: fluorimetric uptake of fluorescein-methotrexate. Type of data set: cell-based.

SMILES strings stand for the structures.

BSEP, sequence (O95342 whole entry): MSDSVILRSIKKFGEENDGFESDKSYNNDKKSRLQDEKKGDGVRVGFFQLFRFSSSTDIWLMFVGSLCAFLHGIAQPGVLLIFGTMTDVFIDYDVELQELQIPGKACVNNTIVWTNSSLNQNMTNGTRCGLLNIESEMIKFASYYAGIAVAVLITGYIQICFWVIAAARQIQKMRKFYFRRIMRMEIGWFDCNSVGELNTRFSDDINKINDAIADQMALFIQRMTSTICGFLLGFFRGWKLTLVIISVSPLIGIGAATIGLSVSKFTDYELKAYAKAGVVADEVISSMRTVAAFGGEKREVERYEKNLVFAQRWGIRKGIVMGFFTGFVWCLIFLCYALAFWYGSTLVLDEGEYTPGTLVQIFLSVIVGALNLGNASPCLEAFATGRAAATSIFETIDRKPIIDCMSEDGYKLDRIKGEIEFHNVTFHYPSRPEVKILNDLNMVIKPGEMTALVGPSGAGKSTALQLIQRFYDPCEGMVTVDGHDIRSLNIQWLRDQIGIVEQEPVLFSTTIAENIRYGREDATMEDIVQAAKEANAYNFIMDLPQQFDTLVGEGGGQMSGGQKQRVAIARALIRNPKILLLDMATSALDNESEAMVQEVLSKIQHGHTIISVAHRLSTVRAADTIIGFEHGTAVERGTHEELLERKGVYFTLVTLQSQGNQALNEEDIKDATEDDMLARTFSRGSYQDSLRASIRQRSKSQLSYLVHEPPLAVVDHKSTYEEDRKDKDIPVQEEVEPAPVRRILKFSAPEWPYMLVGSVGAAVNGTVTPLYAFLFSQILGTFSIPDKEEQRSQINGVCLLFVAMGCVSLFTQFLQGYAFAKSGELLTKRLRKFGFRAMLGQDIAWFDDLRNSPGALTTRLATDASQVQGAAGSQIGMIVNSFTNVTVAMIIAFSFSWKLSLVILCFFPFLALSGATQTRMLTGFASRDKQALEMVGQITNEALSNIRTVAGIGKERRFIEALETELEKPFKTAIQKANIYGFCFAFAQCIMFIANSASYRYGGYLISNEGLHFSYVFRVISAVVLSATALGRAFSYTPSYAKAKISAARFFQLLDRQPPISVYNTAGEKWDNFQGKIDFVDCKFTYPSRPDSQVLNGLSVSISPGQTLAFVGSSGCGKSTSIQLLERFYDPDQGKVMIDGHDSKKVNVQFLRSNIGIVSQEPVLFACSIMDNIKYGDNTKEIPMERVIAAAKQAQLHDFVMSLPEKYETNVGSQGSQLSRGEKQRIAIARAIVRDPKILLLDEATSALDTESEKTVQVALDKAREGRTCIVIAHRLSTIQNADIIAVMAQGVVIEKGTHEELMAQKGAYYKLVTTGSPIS

For the molecule `C#CCC(O)(c1ccncc1)c1cc2ccccc2n1S(=O)(=O)c1ccccc1` (racemic) [FKK6, 1-(1-(phenylsulfonyl)-1H-indol-2-yl)-(1-pyridin-4-yl)-but-3-yn-1-ol], the results for the “% of control activity at 10 μM” value on OATP1B1 [1] and on OATP1B3 [2] were 34% and 36%, respectively. Also, on BSEP, the remaining activity at 10 µM is 44%.
In the case of `CN(C)C(=O)CCSC(SCCC(=O)O)c1cccc(/C=C/c2ccc3ccc(Cl)cc3n2)c1` (centres unmarked) [MK571], the IC50 against MRP2 worked out at 22 µM.
As to `C#CCC(O)(c1cc[n+]([O-])cc1)c1cc2ccccc2n1S(=O)(=O)c1ccccc1` (centres unmarked) [compound 6, 4-(1-hydroxy-1-(1-(phenylsulfonyl)-1H-indol-2-yl)but-3-yn-1-yl)pyridine 1-oxide], the EC50 on hPXR is 7.8 µM.
Same read-out and setting: the same measure for `C#CCC(O)(c1ccncc1)c1cc2ccccc2n1S(=O)(=O)c1ccc(O)cc1` (centres unmarked) [compound 9, 4-((2-(1-hydroxy-1-(pyridin-4-yl)but-3-yn-1-yl)-1H-indol-1-yl)sulfonyl)phenol]: 5.1 µM.
In the case of `CO[C@H]1/C=C/O[C@@]2(C)Oc3c(C)c(O)c4c(O)c(c(/C=N/N5CCN(C)CC5)c(O)c4c3C2=O)NC(=O)/C(C)=C\C=C\[C@H](C)[C@H](O)[C@@H](C)[C@@H](O)[C@@H](C)[C@H](OC(C)=O)[C@@H]1C` [rifampicin], the results for the IC50 against OATP1B3 [3] and at OATP1B1 [4] were 3.9 µM and 3.4 µM, respectively.

Broadly, the IC50 is the concentration needed to halve the response being measured. Low readings indicate inhibition by little substance, high ones a need for much substance. Broadly, the EC50 is the concentration that produces a half-maximal response. Lower therefore signals a more potent agent.

The values are drawn from doi:10.1101/2023.10.21.563410v1 (biorxiv, 2023).
